From patent US20100092526A1, “NANOEMULSION THERAPEUTIC COMPOSITIONS AND METHODS OF USING THE SAME” (NanoBio Corporation, priority 2008, published 2010)

Experiments:
Burkholderia cenocepacia = experiment: MIC/MBC against CF isolates (CLSI, alamar blue)
[1] = tested on: Stenotrophomonas maltophilia; experiment: MIC/MBC against CF isolates (CLSI, alamar blue)
Acinetobacter baumannii = experiment: MIC/MBC against clinical isolates (CLSI, alamar blue)
[2] = 11 CF Stenotrophomonas isolates
[3] = CF Stenotrophomonas isolate NB41
[4] = CF Stenotrophomonas isolate NB42
[5] = CF Stenotrophomonas isolate NB43
[6] = CF Stenotrophomonas isolate NB44
[7] = CF Stenotrophomonas isolate NB45
[8] = CF Stenotrophomonas isolate Steno 1
[9] = CF Stenotrophomonas isolate Steno 2
[10] = CF Stenotrophomonas isolate Steno 3
[11] = CF Stenotrophomonas isolate Steno 4
[12] = CF Stenotrophomonas isolate Steno 6
[13] = CF Stenotrophomonas isolate Steno 8
[14] = S. maltophilia, NE with 1 mM EDTA
[15] = Stenotrophomonas, each drug alone
[16] = A. baumannii, NE with 1 mM EDTA

Colistin
>16 µg/mL: MBC 90 (Acinetobacter baumannii; 10 Acinetobacter isolates) | MBC (Acinetobacter baumannii; Acinetobacter isolate NB37) | MBC (Acinetobacter baumannii; Acinetobacter isolate NB38) | MBC (Acinetobacter baumannii; Acinetobacter isolate NB40) | MBC 90 (Acinetobacter baumannii; Acinetobacter, each drug alone)
4 µg/mL: MBC [1, 11] | MBC 50 (Acinetobacter baumannii; 10 Acinetobacter isolates) | MBC (Acinetobacter baumannii; Acinetobacter isolate NB33) | MBC (Acinetobacter baumannii; Acinetobacter isolate NB35) | MBC 50 (Acinetobacter baumannii; Acinetobacter, each drug alone)
> 16 µg/mL: MBC 90 (Acinetobacter baumannii; [16])
>32 µg/mL: MIC (Burkholderia cenocepacia; CF Burkholderia isolate NB22) | MBC (Burkholderia cenocepacia; CF Burkholderia isolate NB23) | MIC (Burkholderia cenocepacia; CF Burkholderia isolate NB23) | MBC (Burkholderia cenocepacia; CF Burkholderia isolate NB24) | MIC (Burkholderia cenocepacia; CF Burkholderia isolate NB24) | MBC (Burkholderia cenocepacia; CF Burkholderia isolate NB25) | MIC (Burkholderia cenocepacia; CF Burkholderia isolate NB25) | MBC (Burkholderia cenocepacia; CF Burkholderia isolate NB26) | MBC (Burkholderia cenocepacia; CF Burkholderia isolate NB27) | MIC (Burkholderia cenocepacia; CF Burkholderia isolate NB27) | MBC (Burkholderia cenocepacia; CF Burkholderia isolate NB28b) | MIC (Burkholderia cenocepacia; CF Burkholderia isolate NB28b) | MBC (Burkholderia cenocepacia; CF Burkholderia isolate NB29) | MIC (Burkholderia cenocepacia; CF Burkholderia isolate NB29) | MBC (Burkholderia cenocepacia; CF Burkholderia isolate NB30) | MIC (Burkholderia cenocepacia; CF Burkholderia isolate NB30) | MBC 50 [1, 2] | MBC 90 [1, 2] | MIC90 [1, 2] | MBC [1, 5] | MBC [1, 6] | MBC [1, 8] | MIC [1, 8] | MBC [1, 9] | MBC [1, 10] | MIC [1, 10] | MBC [1, 12] | MBC 50 [1, 15] | MBC 90 [1, 15] | MIC90 [1, 15]
16 µg/mL: MIC50 [1, 2] | MIC [1, 5] | MBC [1, 7] | MIC [1, 12] | MIC50 [1, 15]
> 32 µg/mL: MBC 90 [1, 14] | MIC90 [1, 14]
8 µg/mL: MBC [1, 4] | MIC [1, 7] | MIC [1, 13] | MBC (Acinetobacter baumannii; Acinetobacter isolate NB32) | MBC (Acinetobacter baumannii; Acinetobacter isolate NB39)
32 µg/mL: MIC (Burkholderia cenocepacia; CF Burkholderia isolate NB26) | MBC [1, 3] | MIC [1, 6] | MIC [1, 9] | MBC [1, 13]
2 µg/mL: MIC [1, 3] | MIC [1, 4]
1 µg/mL: MIC [1, 11] | MIC50 (Acinetobacter baumannii; 10 Acinetobacter isolates) | MIC90 (Acinetobacter baumannii; 10 Acinetobacter isolates) | MIC90 (Acinetobacter baumannii; [16]) | MBC (Acinetobacter baumannii; Acinetobacter isolate NB31) | MIC (Acinetobacter baumannii; Acinetobacter isolate NB31) | MIC (Acinetobacter baumannii; Acinetobacter isolate NB32) | MIC (Acinetobacter baumannii; Acinetobacter isolate NB33) | MBC (Acinetobacter baumannii; Acinetobacter isolate NB34) | MIC (Acinetobacter baumannii; Acinetobacter isolate NB34) | MIC (Acinetobacter baumannii; Acinetobacter isolate NB35) | MBC (Acinetobacter baumannii; Acinetobacter isolate NB36) | MIC (Acinetobacter baumannii; Acinetobacter isolate NB36) | MIC (Acinetobacter baumannii; Acinetobacter isolate NB37) | MIC (Acinetobacter baumannii; Acinetobacter isolate NB38) | MIC (Acinetobacter baumannii; Acinetobacter isolate NB39) | MIC (Acinetobacter baumannii; Acinetobacter isolate NB40) | MIC50 (Acinetobacter baumannii; Acinetobacter, each drug alone) | MIC90 (Acinetobacter baumannii; Acinetobacter, each drug alone)
